Experimental data published in publication PMC12632267, “Staphylococcus aureus encodes four differentially regulated pyruvate transporters” (Journal of Bacteriology, 2025).

How the values were obtained:
Test in all cases: […]-pyruvate uptake, filter assay, complemented triple mutant
Type in all cases: cell-based
Conditions in all cases: 0.5 mM 14C-pyruvate, TSBG, 37 °C; labelled compound
LrgAB = molecular target: T1, LrgAB (Staphylococcus aureus, UniProt Q2FK07+Q2FK08)
T1 construct: gene lrgA; lrgAB operon, untagged; expressed from Pcad::lrgAB (pBK123) in S. aureus JE2 transporter mutants

LldP = molecular target: T2, LldP (Staphylococcus aureus, UniProt A0A0H2XGA6)
T2 construct: gene SAUSA300_2313; full-length 532 aa, untagged; expressed from Pcad::lldP (pBK123) in S. aureus JE2 delta lrgAB/lctP/lldP

LctP = molecular target: T3, LctP (Staphylococcus aureus, UniProt A0A0H2XEN8)
T3 construct: full-length 530 aa, untagged; expressed from Pcad::lctP (pBK123) in S. aureus JE2 delta lrgAB/lctP/lldP
T3 sequence (A0A0H2XEN8 entry or part of it): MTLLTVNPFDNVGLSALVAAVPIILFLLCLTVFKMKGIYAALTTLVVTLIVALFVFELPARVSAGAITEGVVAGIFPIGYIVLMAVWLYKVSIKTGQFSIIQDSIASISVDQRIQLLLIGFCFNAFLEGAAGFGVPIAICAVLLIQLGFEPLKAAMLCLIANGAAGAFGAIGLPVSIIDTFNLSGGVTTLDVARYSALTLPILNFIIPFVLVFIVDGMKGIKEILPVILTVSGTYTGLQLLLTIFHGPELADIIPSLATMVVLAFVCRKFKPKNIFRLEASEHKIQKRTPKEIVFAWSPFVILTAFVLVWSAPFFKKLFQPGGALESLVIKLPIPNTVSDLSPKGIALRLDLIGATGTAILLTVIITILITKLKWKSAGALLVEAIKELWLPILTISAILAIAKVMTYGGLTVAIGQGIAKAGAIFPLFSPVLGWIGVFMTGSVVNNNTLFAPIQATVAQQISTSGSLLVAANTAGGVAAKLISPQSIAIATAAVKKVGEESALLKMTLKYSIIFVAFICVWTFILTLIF

T2 sequence (A0A0H2XGA6 entry or part of it): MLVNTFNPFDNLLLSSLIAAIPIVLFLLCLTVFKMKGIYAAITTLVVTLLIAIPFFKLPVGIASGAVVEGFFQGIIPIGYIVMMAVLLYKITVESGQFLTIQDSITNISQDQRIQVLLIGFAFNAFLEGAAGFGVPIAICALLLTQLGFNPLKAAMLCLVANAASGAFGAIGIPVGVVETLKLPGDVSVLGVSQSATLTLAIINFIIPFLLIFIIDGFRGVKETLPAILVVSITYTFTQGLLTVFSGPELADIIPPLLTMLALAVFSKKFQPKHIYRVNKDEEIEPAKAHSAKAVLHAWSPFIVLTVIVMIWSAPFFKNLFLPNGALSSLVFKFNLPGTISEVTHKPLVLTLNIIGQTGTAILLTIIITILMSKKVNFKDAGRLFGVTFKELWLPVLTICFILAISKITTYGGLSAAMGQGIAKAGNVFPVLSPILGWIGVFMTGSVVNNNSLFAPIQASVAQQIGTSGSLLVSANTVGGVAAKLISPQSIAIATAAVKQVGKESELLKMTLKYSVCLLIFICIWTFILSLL
T1 sequence (Q2FK07 whole entry): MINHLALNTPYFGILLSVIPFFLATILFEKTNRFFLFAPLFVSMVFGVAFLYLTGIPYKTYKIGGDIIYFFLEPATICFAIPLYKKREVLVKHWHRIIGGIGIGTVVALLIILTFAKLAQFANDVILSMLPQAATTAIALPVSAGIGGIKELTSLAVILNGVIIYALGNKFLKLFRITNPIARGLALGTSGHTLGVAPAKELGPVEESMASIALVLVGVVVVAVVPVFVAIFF
T1 sequence (Q2FK08 whole entry): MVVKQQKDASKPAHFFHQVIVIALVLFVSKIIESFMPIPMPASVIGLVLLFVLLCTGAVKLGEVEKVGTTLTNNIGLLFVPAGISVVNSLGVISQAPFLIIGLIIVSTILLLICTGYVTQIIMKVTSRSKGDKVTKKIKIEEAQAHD

## CC(=O)C(=O)O [pyruvate]
LrgAB
  14C-pyruvate uptake, filter assay, complemented triple mutant: lctP playing the most significant role under these conditions, followed by lldP, and then lrgAB
LldP
  14C-pyruvate uptake, filter assay, complemented triple mutant: lctP playing the most significant role under these conditions, followed by lldP, and then lrgAB
LctP
  14C-pyruvate uptake, filter assay, complemented triple mutant: all three of the putative pyruvate transporters contribute to pyruvate import, with lctP playing
